Data published in patent US20230022803A1, “NOVEL CRYSTALLINE FORM OF GPR40 AGONIST” (ILDONG Pharmaceutical Co., Ltd., priority 2021, published 2023).
Converted amounts (≈) assume the structure as drawn. Like-named read-outs stand apart in the source and are kept apart here.

Tests used:
[1] = Thermal analysis (TGA and DSC); assay type: physicochemical
Excerpt: The crystalline form Compound 1 prepared according to Example 1 was characterized by thermal gravimetric analysis (TGA) and differential scanning calorimetry (DSC). The TGA analysis was made by a TA Q5000 instrument. The DSC analysis was made by a TA Q2000 MDSC instrument. The instrumental parameters used are listed below.
FIGS. 2A and 2B show the results of the TGA and DSC analyses, respectively.

[2] = Gravimetric vapor sorption (GVS) analysis; assay type: physicochemical
Excerpt: The GVS analysis was made using an IGA Sorp instrument by Hiden Analytical. The instrumental parameters are listed below.
FIG. 6 illustrates the GVS analysis result.

[3] = Visual solubility analysis in 13 solvents; assay type: physicochemical; details: organic solvent or mixture, thermodynamic from solid, read-out: Solubility (S)
Protocol: The solubility of the crystalline form Compound 1 was visually determined in 13 solvents. 5.0±0.2mg of the crystalline form Compound 1 was stirred at 20° C. with increasing volumes of solvents until a clear solution was visually observed.

GPR40 = GPR40 (Homo sapiens, UniProt O14842); test: Cell-based aequorin assay (agonistic activity); details: method and reference agonist of U.S. 2020/0223833
Protocol: The agonistic activity of the crystalline form of Compound 1 was measured by using the method described in U.S. Patent Application Publication No. 2020/0223833, which is incorporated herein by reference. The agonistic activity of the crystalline form of Compound 1 was higher than 70% of the activity of the reference agonist used in U.S. Patent Application Publication No. 2020/0223833, which falls within the category of the publication.

Chain of GPR40 (O14842 whole entry, species assumed): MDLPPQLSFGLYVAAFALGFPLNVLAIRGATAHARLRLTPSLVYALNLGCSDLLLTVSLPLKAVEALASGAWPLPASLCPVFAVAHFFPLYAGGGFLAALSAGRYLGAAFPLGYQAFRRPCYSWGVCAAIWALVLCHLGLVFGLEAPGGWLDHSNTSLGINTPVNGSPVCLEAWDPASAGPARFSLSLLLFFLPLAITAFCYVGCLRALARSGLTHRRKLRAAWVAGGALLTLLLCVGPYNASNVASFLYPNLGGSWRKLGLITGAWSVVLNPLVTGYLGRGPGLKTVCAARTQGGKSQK

SMILES: CC#C[C@@H](CC(=O)O)c1ccc(O[C@@H]2CCc3c(-c4ccc(O[C@@H]5CCOC5)nc4)ccc(F)c32)cc1 [Crystalline Form Compound 1, (S)-3-(4-(((R)-7-Fluoro-4-(6-(((R)-tetrahydrofuran-3-yl)oxy)pyridin-3-yl)-2,3-dihydro-1H-inden-1-yl)oxy)phenyl)hex-4-ynoic acid]
- thermal stability ([1]; TGA/DSC, heating rate 10° C./min): relatively high thermal stability
- TGA weight loss ([1]; from ambient to 130° C.): 0.13 % w/w
- 2nd adsorption cycle (0-90% RH), adsorbed water ([2]; GVS isotherm, 25 °C, 0-90% RH): 0.135 % w/w
- 1st adsorption cycle (50-90% RH), adsorbed water ([2]; GVS isotherm, 25 °C, 50-90% RH): 0.119 % w/w
- 1st desorption cycle (90-0% RH), desorbed water ([2]; GVS isotherm, 25 °C, 90-0% RH): 0.127 % w/w
- hygroscopic behavior ([2]; GVS, 25 °C): non-hygroscopic
- weight gain ([2]; from dryness to 90% RH during the second adsorption cycle): less than 0.2 % w/w
- solubility ([3]; 2-Butanone, 20° C.): > 100000 µg/mL
- solubility ([3]; 2-Propanol, 20° C.): 5000 to 6000 µg/mL (≈ 9.97 to 12 mM)
- solubility ([3]; Acetone, 20° C.): > 100000 µg/mL
- solubility ([3]; Acetone/water 90:10, 20° C.): > 100000 µg/mL
- solubility ([3]; Acetonitrile, 20° C.): 6000 to 8000 µg/mL (≈ 12 to 16 mM)
- solubility ([3]; Dichloromethane, 20° C.): > 100000 µg/mL
- solubility ([3]; Ethyl acetate, 20° C.): 50000 to 100000 µg/mL (≈ 99.7 to 199 mM)
- solubility ([3]; Methanol, 20° C.): 6000 to 8000 µg/mL (≈ 12 to 16 mM)
- solubility ([3]; Methanol/water 90:10, 20° C.): 1000 to 2000 µg/mL (≈ 1.99 to 3.99 mM)
- solubility ([3]; Methyl tert-butyl ether, 20° C.): 2000 to 5000 µg/mL (≈ 3.99 to 9.97 mM)
- solubility ([3]; Tetrahydrofuran, 20° C.): > 100000 µg/mL
- solubility ([3]; Toluene, 20° C.): 10000 to 12000 µg/mL (≈ 19.9 to 23.9 mM)
- solubility ([3]; i-Propyl acetate, 20° C.): 17000 to 25000 µg/mL (≈ 33.9 to 49.8 mM)
- agonistic activity relative to the activity of the reference agonist (GPR40): higher than 70%
